The target in this test is T1, WIZ protein (HiBit-WIZ fusion protein) (Homo sapiens, UniProt O95785+Q96SW2).
T1 construct: expressed in transfected cells
Briefly: Quantification of WIZ protein levels in HiBit tag fusion protein assay (WIZ HiBit assay in 293T cells). In kind it is cell-based. Conditions: for Dmax at 25 µM / remaining activity at 25 µM: HEK-293T, 293T cells; for Dmax at 25 µM: 100 − Amax, read-out: % degradation of WIZ (100 − Amax); for remaining activity at 25 µM: DMSO-normalized, curve-fitted percentage of WIZ-HiBit remaining at 25 uM, read-out: WIZ Amax; for DC50: WIZ HiBit assay in 293T cells, 10-point, 5-fold dose response, highest concentration 25 μM, about 18 hours, read-out: WIZ AC50. The method in brief: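 HiBit-tagged WIZ (N-terminal tag, HSVTK promoter) stably expressed single-copy in 293T cells; 10-point 1:5 compound series, top 25 μM, ~18 h at 37 °C. Lytic HiBit/LgBit luminescence read; Amax = curve-fitted % WIZ-HiBit remaining at 25 μM, DMSO normalized to 100%.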
A general note: The HiBiT peptide binds its large partner to form an active luciferase.

Some results are limits rather than exact numbers.

T1 sequence (O95785 whole entry, the tested form may be a part): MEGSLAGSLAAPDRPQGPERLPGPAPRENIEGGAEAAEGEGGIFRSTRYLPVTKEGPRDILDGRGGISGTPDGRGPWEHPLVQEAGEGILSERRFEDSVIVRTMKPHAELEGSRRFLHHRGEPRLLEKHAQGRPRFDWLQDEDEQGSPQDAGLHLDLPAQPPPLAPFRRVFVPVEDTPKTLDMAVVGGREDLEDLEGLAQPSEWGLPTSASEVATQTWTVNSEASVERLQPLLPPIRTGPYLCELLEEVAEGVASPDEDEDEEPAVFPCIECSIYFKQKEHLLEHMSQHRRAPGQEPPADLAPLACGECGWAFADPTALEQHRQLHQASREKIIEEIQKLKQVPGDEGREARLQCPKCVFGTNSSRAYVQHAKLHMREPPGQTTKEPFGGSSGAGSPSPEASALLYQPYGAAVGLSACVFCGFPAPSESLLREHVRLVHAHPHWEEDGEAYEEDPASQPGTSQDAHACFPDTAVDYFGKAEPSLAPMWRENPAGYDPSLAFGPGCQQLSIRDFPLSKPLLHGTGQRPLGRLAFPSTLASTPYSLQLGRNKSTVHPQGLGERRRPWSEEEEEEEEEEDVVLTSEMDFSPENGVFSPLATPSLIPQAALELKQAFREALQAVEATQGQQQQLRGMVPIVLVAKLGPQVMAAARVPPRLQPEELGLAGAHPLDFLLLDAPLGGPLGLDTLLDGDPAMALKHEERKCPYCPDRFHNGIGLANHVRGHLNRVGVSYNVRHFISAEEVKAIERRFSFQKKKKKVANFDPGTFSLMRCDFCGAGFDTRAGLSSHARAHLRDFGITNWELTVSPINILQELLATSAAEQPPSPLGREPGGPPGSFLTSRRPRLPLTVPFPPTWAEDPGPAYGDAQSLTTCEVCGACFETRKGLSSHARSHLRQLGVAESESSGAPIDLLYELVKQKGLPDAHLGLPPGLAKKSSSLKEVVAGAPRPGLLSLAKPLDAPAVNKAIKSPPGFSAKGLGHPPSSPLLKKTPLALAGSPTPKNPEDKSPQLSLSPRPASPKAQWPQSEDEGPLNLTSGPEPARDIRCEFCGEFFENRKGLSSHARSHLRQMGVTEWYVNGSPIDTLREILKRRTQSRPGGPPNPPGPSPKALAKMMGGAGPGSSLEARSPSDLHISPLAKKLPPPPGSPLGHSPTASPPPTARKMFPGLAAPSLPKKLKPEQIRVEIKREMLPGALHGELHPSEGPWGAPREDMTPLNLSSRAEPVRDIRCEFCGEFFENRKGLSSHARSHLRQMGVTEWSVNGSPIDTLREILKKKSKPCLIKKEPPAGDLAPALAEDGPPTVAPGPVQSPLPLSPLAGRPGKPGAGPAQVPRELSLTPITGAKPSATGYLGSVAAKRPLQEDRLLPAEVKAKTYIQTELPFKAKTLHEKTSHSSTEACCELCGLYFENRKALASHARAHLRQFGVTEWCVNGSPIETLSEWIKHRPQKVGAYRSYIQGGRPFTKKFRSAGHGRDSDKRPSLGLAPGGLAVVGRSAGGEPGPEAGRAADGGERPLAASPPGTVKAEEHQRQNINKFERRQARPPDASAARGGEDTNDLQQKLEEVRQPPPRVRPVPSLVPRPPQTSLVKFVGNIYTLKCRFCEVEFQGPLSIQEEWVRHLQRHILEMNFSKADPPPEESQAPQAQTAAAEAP
T1 sequence (Q96SW2 whole entry, the tested form may be a part): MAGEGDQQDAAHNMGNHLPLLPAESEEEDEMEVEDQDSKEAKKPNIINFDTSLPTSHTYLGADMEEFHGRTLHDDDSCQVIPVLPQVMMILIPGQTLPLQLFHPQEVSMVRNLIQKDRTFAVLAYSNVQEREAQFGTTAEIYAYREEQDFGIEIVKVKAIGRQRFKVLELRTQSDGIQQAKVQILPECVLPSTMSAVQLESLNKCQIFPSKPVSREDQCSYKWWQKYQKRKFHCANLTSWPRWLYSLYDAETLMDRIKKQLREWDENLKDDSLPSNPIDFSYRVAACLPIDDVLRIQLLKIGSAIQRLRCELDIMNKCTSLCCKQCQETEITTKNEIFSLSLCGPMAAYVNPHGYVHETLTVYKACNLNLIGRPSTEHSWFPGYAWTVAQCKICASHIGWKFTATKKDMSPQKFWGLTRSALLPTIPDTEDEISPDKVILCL
T1 sequence (Q16531 whole entry partner, the tested form may be a part): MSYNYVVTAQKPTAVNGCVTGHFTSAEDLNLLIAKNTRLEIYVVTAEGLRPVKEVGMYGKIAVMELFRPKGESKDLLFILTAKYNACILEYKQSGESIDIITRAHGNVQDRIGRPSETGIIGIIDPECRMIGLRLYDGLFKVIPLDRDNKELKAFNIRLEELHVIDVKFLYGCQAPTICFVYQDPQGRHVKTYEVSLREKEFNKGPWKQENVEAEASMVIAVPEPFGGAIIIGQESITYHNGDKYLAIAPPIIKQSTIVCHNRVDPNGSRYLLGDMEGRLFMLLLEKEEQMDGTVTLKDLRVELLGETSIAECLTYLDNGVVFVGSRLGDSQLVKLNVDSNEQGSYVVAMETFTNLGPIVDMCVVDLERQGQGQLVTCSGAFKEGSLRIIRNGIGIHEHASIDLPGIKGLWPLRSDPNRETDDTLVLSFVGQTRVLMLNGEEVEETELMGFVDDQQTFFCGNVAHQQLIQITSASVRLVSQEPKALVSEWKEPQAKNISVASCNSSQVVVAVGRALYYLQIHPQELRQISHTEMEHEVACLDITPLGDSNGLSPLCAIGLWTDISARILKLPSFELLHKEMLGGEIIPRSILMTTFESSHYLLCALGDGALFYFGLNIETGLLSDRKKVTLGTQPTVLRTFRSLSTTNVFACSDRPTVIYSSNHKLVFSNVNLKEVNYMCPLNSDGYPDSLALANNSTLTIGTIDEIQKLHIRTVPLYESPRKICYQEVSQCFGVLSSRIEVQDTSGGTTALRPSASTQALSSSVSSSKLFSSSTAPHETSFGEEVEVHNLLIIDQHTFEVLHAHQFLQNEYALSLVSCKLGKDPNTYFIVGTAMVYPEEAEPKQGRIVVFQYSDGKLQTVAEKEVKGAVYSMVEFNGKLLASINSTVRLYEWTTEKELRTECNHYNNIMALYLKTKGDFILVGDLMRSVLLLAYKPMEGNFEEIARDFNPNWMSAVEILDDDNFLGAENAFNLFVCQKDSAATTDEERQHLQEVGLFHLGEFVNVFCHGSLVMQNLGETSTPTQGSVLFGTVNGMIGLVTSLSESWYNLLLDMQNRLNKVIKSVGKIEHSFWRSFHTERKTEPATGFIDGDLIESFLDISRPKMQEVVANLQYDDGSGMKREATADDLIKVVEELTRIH

On to `CC1(C)CN(Cc2ccn3ncc(N4CCC(=O)NC4=O)c3c2)CCN1CC1CCOCC1` [Example 232, 1-(5-((3,3-dimethyl-4-((tetrahydro-2H-pyran-4-yl)methyl)piperazin-1-yl)methyl)pyrazolo[1,5-a]pyridin-3-yl)dihydropyrimidine-2,4(1H,3H)-dione], for which the Dmax at 25 µM was 48%, the remaining activity at 25 µM was found to be 52% and the DC50 is 0.206 µM.

Turning to `CC(C)CN1CCN(Cc2ccn3ncc(N4CCC(=O)NC4=O)c3c2)CC1(C)C` [Example 233, 1-(5-((4-isobutyl-3,3-dimethylpiperazin-1-yl)methyl)pyrazolo[1,5-a]pyridin-3-yl)dihydropyrimidine-2,4(1H,3H)-dione], the Dmax at 25 µM was determined as 40%, the remaining activity at 25 µM amounted to 60% and the DC50 is 0.589 µM.

For the compound `O=C1CCN(c2cnn3ccc(CN4C[C@H]5C[C@@H]4CN5CC4CCCCC4)cc23)C(=O)N1` [Example 234, 1-(5-(((1R,4R)-5-(cyclohexylmethyl)-2,5-diazabicyclo[2.2.1]heptan-2-yl)methyl)pyrazolo[1,5-a]pyridin-3-yl)dihydropyrimidine-2,4(1H,3H)-dione], the Dmax at 25 µM was determined as 42%, the remaining activity at 25 µM is 58% and the DC50 was determined as 0.942 µM.

For the compound `O=C1CCN(c2cnn3ccc(CN4C[C@H]5C[C@@H]4CN5Cc4cccnc4)cc23)C(=O)N1` [Example 235, 1-(5-(((1R,4R)-5-(pyridin-3-ylmethyl)-2,5-diazabicyclo[2.2.1]heptan-2-yl)methyl)pyrazolo[1,5-a]pyridin-3-yl)dihydropyrimidine-2,4(1H,3H)-dione], the Dmax at 25 µM was found to be 35%, the remaining activity at 25 µM was 65% and the DC50 is 3.28 µM.

`O=C1CCN(c2cnn3ccc(CN4C[C@@H]5C[C@H]4CN5CC4CCCCC4)cc23)C(=O)N1` [Example 236, 1-(5-(((1S,4S)-5-(cyclohexylmethyl)-2,5-diazabicyclo[2.2.1]heptan-2-yl)methyl)pyrazolo[1,5-a]pyridin-3-yl)dihydropyrimidine-2,4(1H,3H)-dione]: the Dmax at 25 µM came to 5%, the remaining activity at 25 µM is 95% and the DC50 was found to be 3.2 µM.

As to `O=C1CCN(c2cnn3ccc(CN4C[C@@H]5C[C@H]4CN5Cc4cccnc4)cc23)C(=O)N1` [Example 237, 1-(5-(((1S,4S)-5-(pyridin-3-ylmethyl)-2,5-diazabicyclo[2.2.1]heptan-2-yl)methyl)pyrazolo[1,5-a]pyridin-3-yl)dihydropyrimidine-2,4(1H,3H)-dione], the Dmax at 25 µM came out at 6%, the remaining activity at 25 µM amounted to 94% and the DC50 was over 25 µM.

With `CC(C)S(=O)(=O)N1C[C@@H]2C[C@H]1CN2Cc1ccn2ncc(N3CCC(=O)NC3=O)c2c1` [Example 238, 1-(5-(((1S,4S)-5-(isopropylsulfonyl)-2,5-diazabicyclo[2.2.1]heptan-2-yl)methyl)pyrazolo[1,5-a]pyridin-3-yl)dihydropyrimidine-2,4(1H,3H)-dione], the Dmax at 25 µM turned out to be 19%, the remaining activity at 25 µM was 81% and the DC50 was determined as 0.754 µM.

As to `CC(C)S(=O)(=O)N1C[C@H]2C[C@@H]1CN2Cc1ccn2ncc(N3CCC(=O)NC3=O)c2c1` [Example 239, 1-(5-(((1R,4R)-5-(isopropylsulfonyl)-2,5-diazabicyclo[2.2.1]heptan-2-yl)methyl)pyrazolo[1,5-a]pyridin-3-yl)dihydropyrimidine-2,4(1H,3H)-dione], the Dmax at 25 µM is 0%, the remaining activity at 25 µM came to 100% and the DC50 was over 25 µM.

In the case of `CC(C)C(C)N1CCN(Cc2ccn3ncc(N4CCC(=O)NC4=O)c3c2)CC1` (stereo not drawn) [Example 240, 1-(5-((4-(3-methylbutan-2-yl)piperazin-1-yl)methyl)pyrazolo[1,5-a]pyridin-3-yl)dihydropyrimidine-2,4(1H,3H)-dione], the Dmax at 25 µM worked out at 80%, the remaining activity at 25 µM is 20% and the DC50 turned out to be 0.025 µM.

Regarding `CC(C)(CN1CCN(Cc2ccn3ncc(N4CCC(=O)NC4=O)c3c2)CC1)C(F)(F)F` [Example 241, 1-(5-((4-(3,3,3-trifluoro-2,2-dimethylpropyl)piperazin-1-yl)methyl)pyrazolo[1,5-a]pyridin-3-yl)dihydropyrimidine-2,4(1H,3H)-dione], the Dmax at 25 µM came to 44%, the remaining activity at 25 µM was 56% and the DC50 is 0.351 µM.

`O=C1CCN(c2cnn3ccc(CN4CCN(CC5CCCCC5)C(=O)C4)cc23)C(=O)N1` [Example 242, 1-(5-((4-(cyclohexylmethyl)-3-oxopiperazin-1-yl)methyl)pyrazolo[1,5-a]pyridin-3-yl)dihydropyrimidine-2,4(1H,3H)-dione]: the Dmax at 25 µM came out at 7%, the remaining activity at 25 µM was 93% and the DC50 came out at 1.6 µM.

Consider `O=C1CCN(c2cnn3ccc(CN4CCN(CCC5CCCCC5)C(=O)C4)cc23)C(=O)N1` [Example 243, 1-(5-((4-(2-cyclohexylethyl)-3-oxopiperazin-1-yl)methyl)pyrazolo[1,5-a]pyridin-3-yl)dihydropyrimidine-2,4(1H,3H)-dione], for which the Dmax at 25 µM was 13%, the remaining activity at 25 µM was found to be 87% and the DC50 came out at 3.06 µM.

In the case of `COC[C@H]1CN(Cc2ccn3ncc(N4CCC(=O)NC4=O)c3c2)CCN1CC1CCCCC1` [Example 244, (R)-1-(5-((4-(cyclohexylmethyl)-3-(methoxymethyl)piperazin-1-yl)methyl)pyrazolo[1,5-a]pyridin-3-yl)dihydropyrimidine-2,4(1H,3H)-dione], the Dmax at 25 µM was determined as 53%, the remaining activity at 25 µM stood at 47% and the DC50 amounted to 1.18 µM.

Regarding `COC[C@H]1CN(Cc2ccn3ncc(N4CCC(=O)NC4=O)c3c2)CCN1CC(C)C` [Example 245, (R)-1-(5-((4-isobutyl-3-(methoxymethyl)piperazin-1-yl)methyl)pyrazolo[1,5-a]pyridin-3-yl)dihydropyrimidine-2,4(1H,3H)-dione], the Dmax at 25 µM is 52%, the remaining activity at 25 µM worked out at 48% and the DC50 worked out at 0.351 µM.

With `O=C1CCN(c2cnn3ccc(CN4CCN(CC5CCCCC5)[C@@H](C(F)F)C4)cc23)C(=O)N1` [Example 246, (R)-1-(5-((4-(cyclohexylmethyl)-3-(difluoromethyl)piperazin-1-yl)methyl)pyrazolo[1,5-a]pyridin-3-yl)dihydropyrimidine-2,4(1H,3H)-dione], the Dmax at 25 µM was determined as 0%, the remaining activity at 25 µM was 100% and the DC50 was over 25 µM.

As for `CC(C)CN1CCN(Cc2ccn3ncc(N4CCC(=O)NC4=O)c3c2)C[C@@H]1C(F)F` [Example 247, (R)-1-(5-((3-(difluoromethyl)-4-isobutylpiperazin-1-yl)methyl)pyrazolo[1,5-a]pyridin-3-yl)dihydropyrimidine-2,4(1H,3H)-dione], the Dmax at 25 µM was 15%, the remaining activity at 25 µM was determined as 85% and the DC50 was 1.37 µM.

`O=C1CCN(c2cnn3ccc(CN4CCCNCC4)cc23)C(=O)N1` [Example 248, 1-(5-((1,4-diazepan-1-yl)methyl)pyrazolo[1,5-a]pyridin-3-yl)dihydropyrimidine-2,4(1H,3H)-dione]: the Dmax at 25 µM is 0%, the remaining activity at 25 µM was 100% and the DC50 was over 25 µM.

As for `O=C1CCN(c2cnn3ccc(CN4CCCN(CC5CCCCC5)CC4)cc23)C(=O)N1` [Example 249, 1-(5-((4-(cyclohexylmethyl)-1,4-diazepan-1-yl)methyl)pyrazolo[1,5-a]pyridin-3-yl)dihydropyrimidine-2,4(1H,3H)-dione], the Dmax at 25 µM worked out at 41%, the remaining activity at 25 µM came to 59% and the DC50 worked out at 0.3 µM.

As for `CC(C)CN1CCCN(Cc2ccn3ncc(N4CCC(=O)NC4=O)c3c2)CC1` [Example 250, 1-(5-((4-isobutyl-1,4-diazepan-1-yl)methyl)pyrazolo[1,5-a]pyridin-3-yl)dihydropyrimidine-2,4(1H,3H)-dione], the Dmax at 25 µM stood at 41%, the remaining activity at 25 µM was 59% and the DC50 amounted to 1.35 µM.

In the case of `O=C1CCN(c2cnn3ccc(CN4C[C@H]5CC[C@@H](C4)N5Cc4cccc(F)c4)cc23)C(=O)N1` [Example 251, 1-(5-(((1R,5S)-8-(3-fluorobenzyl)-3,8-diazabicyclo[3.2.1]octan-3-yl)methyl)pyrazolo[1,5-a]pyridin-3-yl)dihydropyrimidine-2,4(1H,3H)-dione], the Dmax at 25 µM amounted to 18%, the remaining activity at 25 µM amounted to 82% and the DC50 was 0.165 µM.

As for `O=C1CCN(c2cnn3ccc(CN4C[C@H]5CC[C@@H](C4)N5CC4CCCCC4)cc23)C(=O)N1` [Example 252, 1-(5-(((1R,5S)-8-(cyclohexylmethyl)-3,8-diazabicyclo[3.2.1]octan-3-yl)methyl)pyrazolo[1,5-a]pyridin-3-yl)dihydropyrimidine-2,4(1H,3H)-dione], the Dmax at 25 µM came to 42%, the remaining activity at 25 µM was 58% and the DC50 amounted to 0.277 µM.

Consider `O=C1CCN(c2cnn3ccc(CN4C[C@H]5CC[C@@H](C4)N5Cc4cccnc4)cc23)C(=O)N1` [Example 253, 1-(5-(((1R,5S)-8-(pyridin-3-ylmethyl)-3,8-diazabicyclo[3.2.1]octan-3-yl)methyl)pyrazolo[1,5-a]pyridin-3-yl)dihydropyrimidine-2,4(1H,3H)-dione], for which the Dmax at 25 µM was found to be 23%, the remaining activity at 25 µM was 77% and the DC50 came to 0.531 µM.

The values above are taken from patent publication US11787785B2 (NOVARTIS AG, priority 2021, dated 2023).
